# Earlier results in PMC8067797, “An In Vivo Predictive Dissolution Methodology (iPD Methodology) with a BCS Class IIb Drug Can Predict the In Vivo Bioequivalence Results: Etoricoxib Products” (Pharmaceutics, 2021).
# Values joined by “and” are separate entries in the source; they are usually repeats but may differ in a detail not shown here. Equal entries are not always repeated. Where two headings read alike, the source gives them in different places.
# Columns and labels:
# [1] = parameters: method as in Schwartz et al. [23]; conditions: ref Schwartz et al. [23]
# [2] = parameters: method as in Okumu et al. [7]; conditions: ref Okumu et al. [7]
# [3] = not given; remark: listed apart in the source
# [4] = test system: Caco-2; conditions: used for plasma simulations; ref [6]
# [5] = not given; remark: listed apart in the source
# [6] = curve fitting of literature data, ref [6]
smiles,measurement,setting,value
"Cc1ccc(-c2ncc(Cl)cc2-c2ccc(S(C)(=O)=O)cc2)cn1 [ETO, Etoricoxib]","Cs, solubility","pH 4.5, ref [7]",440 µg/mL
same,solubility in FaSSIF or simulated intestinal fluids (SIF phosphate buffer),"pH 6.8, ref [7]",140 µg/mL
same,solubility in the stomach,ref Mitra el al. [6],25000 µg/mL
same,reduction of plasma Cmax,[1]; with calcium carbonate,23%
same,reduction of plasma Cmax,[1]; with magnesium and aluminum hydroxide,15%
same,precipitation in transfer system,[2],did not observe precipitation
same,supersaturation ratio (dissolved concentration / equilibrium solubility),[2]; transfer system,below 3
same,Central compartment volume—Vc,"[3]; average value, curve fitting of literature data, ref [6],[9],[21]",27.40 L
same,Distribution rate constant from central to peripheral compartment—k12,[3]; [6],0.6180 h⁻¹
same,Distribution rate constant from peripheral to central compartment—k21,[3]; [6],0.2820 h⁻¹
same,Elimination rate constant from central compartment—ke,[3]; [6],0.0899 h⁻¹
same,Pharmacokinetics dose linearity,"[3]; dose range 30–240 mg, ref [8]",linear
same,oral bioavailability,"[3]; oral dosing, ref [8]",up to 100%
same,Oral absolute bioavailability,[3]; ref [9],83%
same,Oral absolute bioavailability,[3]; ref [10],practically complete
same,Effective Permeability Small Intestine—Peff,[4],475 ×10⁻⁶ cm/s
same,BCS classification,"[5]; low solubility pH 4–7, high permeability",BCS class II
same,logP,[5]; ref [14],2.79 and 2.794
same,pKa,"[5]; weak base, ref [6],[7]",4.96
